# Data as given in patent US7763751B2 (priority 2003, dated 2010).
# Where two headings read alike, the source gives them in different places.
# Columns and labels:
# β-Amyloid1-42 = molecular target: T1, β-Amyloid1-42 (Homo sapiens, UniProt P05067); assay: Inhibition of Aβ 1-42 spontaneous aggregation (HPLC assay); format: biochemical; conditions: for potency in inhibiting the aggregation of Aβ1-42 as compared to compound (3): comparison with known compound (3); for IC50: concentration able to inhibit the aggregation of the fibrils by 50%, peptide 20 μM, pH 7.4, 18 h at 37° C., read-out: β-Amyloid1-42 Anti-aggregation (HPLC assay) IC50; for anti-aggregating properties against Aβ1-42: in words
# T1 construct: Synthetic Aβ 1-42 (U.S. Peptide, Rancho Cucamonga, USA); purchased U.S. Peptide, Rancho Cucamonga, USA; host or cells: chemical synthesis
# T1 sequence (P05067 672-713 limits assumed): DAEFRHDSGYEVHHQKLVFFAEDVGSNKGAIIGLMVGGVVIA
# Procedure: (§1) In our experimental conditions, the peptide monomer (anti-aggregation protocol) or already aggregated (disaggregation protocol) was incubated at 37° C., alone or in the presence of the test compound, for different time intervals, then centrifuged and both the supernatant and the pellet were analyzed by HPLC or Thioflavine T binding assay.
# Inhibition of Aβ 1-42 Spontaneous Aggregation
# Preparation of the Aβ 1-42 peptide
# Synthetic Aβ 1-42 (U.S. Peptide, Rancho Cucamonga, USA) was dissolved to 220 μM in H2O/CH3CN 1:1. Aliquots of 10 μg were lyophilized under vacuum with an Eppendorf concentrator for 18 h and stored at −80° C.
# Aβ 1-42 spontaneous aggregation
# 10 μg of lyophilized peptide sample was dissolved at 20 μM in 20 mM potassium phosphate buffer, pH 7.4, containing 150 mM NaCl. The sample was incubated for 18 h at 37° C. After centrifugation at 13000 xg for 5 min, the pellet was dissolved in formic acid and both the pellet and the supernatant were analysed by HPLC. The extent of aggregation was determined as the percentage of peptide content in the pellet compared with the total amount.
# α-synuclein = molecular target: T2, α-synuclein (Homo sapiens, UniProt P37840); assay: Inhibition of NAC (α-synuclein) spontaneous aggregation (HPLC assay); format: biochemical; conditions: for potency in inhibiting the aggregation of α-synuclein as compared to compound (3): comparison with known compound (3); for anti-aggregating properties against α-synuclein: in words
# T2 construct: The synthetic peptide NAC (Bachem) was dissolved at 1 mg/ml; purchased Bachem; host or cells: chemical synthesis
# Procedure: as §1
# Inhibition of Non Aβ Component of Alzheimer's Disease Amyloid (NAC, α-synuclein) Spontaneous Aggregation
# Preparation of the NAC peptide
# The synthetic peptide NAC (Bachem) was dissolved at 1 mg/ml in H2O/CH3CN 1:1 plus 5% TFA. Aliquots of 40 μg were lyophilized under vacuum for 18 h and stored at −80° C.
# NAC spontaneous aggregation
# 40 μg of lyophilized peptide sample was dissolved at 500 μM in 20 mM potassium phosphate buffer, pH 7.4, containing 150 mM NaCl. The sample was incubated for 24 h at 37° C. After centrifugation at 13000 xg for 5 min, the pellet was dissolved in formic acid and both pellet and supernatant were analyzed by HPLC. The extent of aggregation was determined as the percentage of peptide content in the pellet compared to the total amount used.
Compound,potency in inhibiting the aggregation of Aβ1-42 as compared to compound (3) (β-Amyloid1-42),IC50 (β-Amyloid1-42),anti-aggregating properties against Aβ1-42 (β-Amyloid1-42),IC50 (α-synuclein),potency in inhibiting the aggregation of α-synuclein as compared to compound (3) (α-synuclein),anti-aggregating properties against α-synuclein (α-synuclein),"IC50 (α-synuclein; NAC peptide 500 μM, pH 7.4, 24 h at 37° C., read-out: α-synuclein Anti-aggregation (HPLC assay) IC50)"
"CONC(C)Cc1ccc(O)c(O)c1 (centres unmarked) [Compound 1, N-(1-methyl-2-(3,4-dihydroxy-phenyl)-ethyl)-O-methyl-hydroxylamine]",more potent,15 µM,significant anti-aggregating properties,222 µM,more potent,significant anti-aggregating properties,
"CCCN(OCC)C1CCc2c(ccc(O)c2O)C1 (centres unmarked) [Compound 2, N-(5,6-dihydroxy-1,2,3,4-tetrahydro-naphthalene-2-yl)-N-propyl-O-ethyl-hydroxylamine]",significantly more potent,6 µM,significant anti-aggregating properties,35 µM,significantly more potent,significant anti-aggregating properties,
"CCCN(CCC)[C@@H]1Cc2c(O)ccc(O)c2C[C@H]1C (relative stereo) [Compound 3, trans-N-(5,8-hydroxy-3-methyl-1,2,3,4-tetrahydro-naphtalene-2yl)-N,N-dipropyl-amine, reference compound]",,60 µM,,,,,878 µM
